Measurements as given in patent EP4768484A1, “HETEROCYCLIC FUSED RING COMPOUND, AND COMPOSITION AND USE THEREOF” (Shenzhen TargetRx, Inc., priority 2023, dated 2025).

Columns and labels:
Assay type in all cases: cell-based
[1] = test system: K562 cells; test: Cell growth inhibitory activity assay (CellTiter-Glo), K562 cells; conditions: Homo sapiens, 72 h, CTG cell viability
How it was run: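 Growth inhibition of human K562 cells, sourced from Nanjing Kebai (CBP60529), was assessed with Promega's CellTiter-Glo kit, which measures viability through ATP quantification. Log-phase cells went into the inner wells of 96-well plates, with PBS in edge wells, incubated overnight at 37 °C and 5% CO2, then exposed to serially diluted compound for 72 h.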

[2] = biological target: T1, Ba/F3 BCR-ABL1 WT (Homo sapiens, UniProt P00519+P11274); test: Cell growth inhibitory activity assay (CellTiter-Glo), Ba/F3 BCR-ABL1 WT cells; conditions: 72 h, CTG cell viability
T1 construct: BCR (N-terminal fusion partner of the oncoprotein); expressed in transfected cells; host or cells: Ba/F3 (lentiviral transduction, monoclonal line)
How it was run: (§1)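 Ba/F3 parental cells or Ba/F3 lines lentivirally transduced with WT or mutant BCR-ABL1, seeded overnight then exposed to serially diluted compound 72 h at 37 °C, 5% CO2. Viability by CellTiter-Glo ATP luminescence with a T0 plate; 0.5% DMSO controls; IC50 from four-parameter nonlinear fit.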

[3] = biological target: T2, Ba/F3 BCR-ABL1 T315I (Homo sapiens, UniProt P00519+P11274, T315I); test: Cell growth inhibitory activity assay (CellTiter-Glo), Ba/F3 BCR-ABL1 T315I cells; conditions: 72 h, CTG cell viability
T2 construct: BCR (N-terminal fusion partner of the oncoprotein); expressed in transfected cells; host or cells: Ba/F3 (lentiviral transduction, monoclonal line)
How it was run: as §1

[4] = test system: Ba/F3 parental cells; test: Cell growth inhibitory activity assay (CellTiter-Glo), Ba/F3 parental cells; conditions: Mus musculus, BaF3, 72 h, CTG cell viability, read-out: IC50 Ba/F3 BCR-ABL1 Parental
How it was run: as §1

[5] = biological target: T3, Ba/F3 BCR-ABL1 E255V/T315I (Homo sapiens, UniProt P00519+P11274, E255V/T315I); test: Cell growth inhibitory activity assay (CellTiter-Glo), Ba/F3 BCR-ABL1 E255V/T315I cells; conditions: 72 h, CTG cell viability
T3 construct: BCR (N-terminal fusion partner of the oncoprotein); expressed in transfected cells; host or cells: Ba/F3 (lentiviral transduction, monoclonal line)
Protocol: (§2) In this assay, the Celltiter-Glo (CTG) kit provided by Promega was used, and it is a homogeneous cell viability assay method. The cell viability of cultured cells was measured by quantifying ATP. K562 cells were purchased from Nanjing Kebai, product number CBP60529; Ba/F3 parental cells were purchased from RIKEN BRC, product number RCB0805; other cells containing BCR-ABL1 WT, BCR-ABL1 T315I, BCR-ABL1 T315M, BCR-ABL1 Y253H/E255K, BCR-ABL1 E255V/T3151, BCR-ABL1 A424T, BCR-ABL1 A337V, BCR-ABL1 P465S, BCR-ABL1 V468F, and BCR-ABL1 I502L were all monoclonal engineered cell lines obtained by transducting Ba/F3 parental cells with the lentivirus plasmids containing WT or corresponding mutated BCR-ABL1.
(§3) The steps of cell viability assay are as follows: • a) Cells in logarithmic growth phase were collected. Cell suspension was prepared and the cells were counted. Concentration of the cells was calculated. • b) The cell suspension was diluted to the required concentration and then added to the middle wells of a 96-well plate, and PBS was added to the edge wells. The wells with no cells and only culture medium were used as blank controls. • c) In addition to the cell plate used for compound analysis, another 96-well plate was prepared as a T0 plate, and 3-6 blank wells and 3-6 cell wells were added. The next day, CTG was used to test the cell viability as the T0 viability value of the cells. • d) The cell plate was incubated at 37 °C in a 5% CO2 incubator overnight. • e) The next day, each concentration of a compound subjected to a gradient dilution was added, and the cell plate was incubated at 37 °C in a 5% CO2 incubator for 72 h. The wells with no compound and only 0.5% DMSO were used as positive controls for cell growth. • f) CTG reagent (CellTiter-Glo kit) was added according to the manufacturer's instructions to test the cell viability value. • g) The plate was read using Biotek cytation3.0 microplate reader and the data were exported. • h) IC50 was calculated using GraphPad Prism 7.0 software.
(§4) The IC50 (half-maximal inhibitory concentration) of the compound was obtained using the following nonlinear fitting formula: Y = Bottom + (Top−Bottom)/(1+10^(∧)((LogIC50−X)*HillSlope)) [formula] • X: Log value of the compound concentration • Y: Inhibition rate (% inhibition) • Top: Maximum response • Bottom: Baseline response • HillSlope: Slope of the curve
(§5) The formula for calculating cell inhibition rate (inhibition rate %) was: [formula]

[6] = biological target: T4, Ba/F3 BCR-ABL1 A424T (Homo sapiens, UniProt P00519+P11274, A424T); test: Cell growth inhibitory activity assay (CellTiter-Glo), Ba/F3 BCR-ABL1 A424T cells; conditions: 72 h, CTG cell viability
T4 construct: BCR (N-terminal fusion partner of the oncoprotein); expressed in transfected cells; host or cells: Ba/F3 (lentiviral transduction, monoclonal line)
Protocol: as §2, §3, §4, §5

[7] = biological target: T5, Ba/F3 BCR-ABL1 A337V (Homo sapiens, UniProt P00519+P11274, A337V); test: Cell growth inhibitory activity assay (CellTiter-Glo), Ba/F3 BCR-ABL1 A337V cells; conditions: 72 h, CTG cell viability
T5 construct: BCR (N-terminal fusion partner of the oncoprotein); expressed in transfected cells; host or cells: Ba/F3 (lentiviral transduction, monoclonal line)
Protocol: as §2, §3, §4, §5

[8] = biological target: T6, Ba/F3 BCR-ABL1 P465S (Homo sapiens, UniProt P00519+P11274, P465S); test: Cell growth inhibitory activity assay (CellTiter-Glo), Ba/F3 BCR-ABL1 P465S cells; conditions: 72 h, CTG cell viability
T6 construct: BCR (N-terminal fusion partner of the oncoprotein); expressed in transfected cells; host or cells: Ba/F3 (lentiviral transduction, monoclonal line)
Protocol: as §2, §3, §4, §5

[9] = biological target: T7, Ba/F3 BCR-ABL1 V468F (Homo sapiens, UniProt P00519+P11274, V468F); test: Cell growth inhibitory activity assay (CellTiter-Glo), Ba/F3 BCR-ABL1 V468F cells; conditions: 72 h, CTG cell viability
T7 construct: BCR (N-terminal fusion partner of the oncoprotein); expressed in transfected cells; host or cells: Ba/F3 (lentiviral transduction, monoclonal line)
Protocol: as §2, §3, §4, §5

[10] = biological target: T8, Ba/F3 BCR-ABL1 I502L (Homo sapiens, UniProt P00519+P11274, I502L); test: Cell growth inhibitory activity assay (CellTiter-Glo), Ba/F3 BCR-ABL1 I502L cells; conditions: 72 h, CTG cell viability
T8 construct: BCR (N-terminal fusion partner of the oncoprotein); expressed in transfected cells; host or cells: Ba/F3 (lentiviral transduction, monoclonal line)
Protocol: as §2, §3, §4, §5

[11] = biological target: T9, Ba/F3 BCR-ABL1 T315M (Homo sapiens, UniProt P00519+P11274, T315M); test: Cell growth inhibitory activity assay (CellTiter-Glo), Ba/F3 BCR-ABL1 T315M cells; conditions: 72 h, CTG cell viability
T9 construct: BCR (N-terminal fusion partner of the oncoprotein); expressed in transfected cells; host or cells: Ba/F3 (lentiviral transduction, monoclonal line)
How it was run: as §1

[12] = biological target: T10, Ba/F3 BCR-ABL1 Y253H/E255K (Homo sapiens, UniProt P00519+P11274, E255K/Y253H); test: Cell growth inhibitory activity assay (CellTiter-Glo), Ba/F3 BCR-ABL1 Y253H/E255K cells; conditions: 72 h, CTG cell viability
T10 construct: BCR (N-terminal fusion partner of the oncoprotein); expressed in transfected cells; host or cells: Ba/F3 (lentiviral transduction, monoclonal line)
Protocol: as §2, §3, §4, §5

Structure (SMILES) | IC50 [1] [nM] | IC50 [2] [nM] | IC50 [3] [nM] | IC50 [4] [nM] | IC50 [5] [nM] | IC50 [6] [nM] | IC50 [7] [nM] | IC50 [8] [nM] | IC50 [9] [nM] | IC50 [10] [nM] | IC50 [11] [nM] | IC50 [12] [nM]
CC(C)n1cnc2cc(C(=O)Nc3ccc(OC(F)(F)Cl)cc3)cc(-c3cnc4c(c3)C(=O)N(C)C4)c21 [T-2, N-(4-(chlorodifluoromethoxy)phenyl)-1-isopropyl-7-(6-methyl-5-oxo-6,7-dihydro-5H-pyrrolo[3,4-b]pyridin-3-yl)-1H-benzo[d]imidazole-5-carboxamide] | ≤ 5 | ≤ 5 | 5 to 50 | > 1000 | 5 to 50 | 50 to 1000 | 50 to 1000 | 50 to 1000 | 50 to 1000 | 50 to 1000 | – | –
C[C@@H]1COCc2nc3cc(C(=O)Nc4ccc(OC(F)(F)Cl)cc4)cc(-c4cnc5c(c4)-c4n[nH]cc4C5)c3n21 [T-3, (R)-N-(4-(chlorodifluoromethoxy)phenyl)-6-(2,4-dihydropyrazolo[3',4':3,4]cyclopenta[1,2-b]pyridin-7-yl)-4-methyl-3,4-dihydro-1H-benzo[4,5]imidazo[2,1-c][1,4]oxazine-8-carboxamide] | ≤ 5 | ≤ 5 | ≤ 5 | > 1000 | ≤ 5 | 5 to 50 | 5 to 50 | 5 to 50 | 5 to 50 | 5 to 50 | 50 to 1000 | ≤ 5
C[C@@H]1COCc2nc3cc(C(=O)Nc4ccc(OC(F)(F)Cl)cc4)cc(-c4cnc5c(c4)-c4nn(-c6ccccn6)cc4C5)c3n21 [T-4] | ≤ 5 | ≤ 5 | ≤ 5 | > 1000 | 5 to 50 | 5 to 50 | 50 to 1000 | 50 to 1000 | 50 to 1000 | 5 to 50 | > 1000 | ≤ 5
CN1Cc2ncc(-c3cc(C(=O)Nc4ccc(OC(F)(F)Cl)cc4)cc4c3C(C)(C)C(=O)N4)cc2C1=O [T-7, N-(4-(chlorodifluoromethoxy)phenyl)-3,3-dimethyl-4-(6-methyl-5-oxo-6,7-dihydro-5H-pyrrolo[3,4-b]pyridin-3-yl)-2-oxoindoline-6-carboxamide] | ≤ 5 | ≤ 5 | 5 to 50 | > 1000 | 5 to 50 | > 1000 | > 1000 | > 1000 | 50 to 1000 | 50 to 1000 | – | –
CCn1cc2c(n1)-c1cc(-c3cc(C(=O)Nc4ccc(OC(F)(F)Cl)cc4)cc4nc5n(c34)[C@H](C)COC5)cnc1C2 [T-18, (R)-N-(4-(chlorodifluoromethoxy)phenyl)-6-(2-ethyl-2,4-dihydropyrazolo[3',4':3,4]cyclopenta[1,2-b]pyridin-7-yl)-4-methyl-3,4-dihydro-1H-benzo[4,5]imidazo[2,1-c][1,4]oxazine-8-carboxamide] | ≤ 5 | ≤ 5 | ≤ 5 | > 1000 | ≤ 5 | 5 to 50 | 5 to 50 | 5 to 50 | 5 to 50 | 5 to 50 | > 1000 | ≤ 5
C[C@@H]1CCSc2nc3cc(C(=O)Nc4ccc(OC(F)(F)Cl)cc4)cc(-c4cnc5c(c4)C(=O)N(C)C5)c3n21 [T-20, (R)-N-(4-(chlorodifluoromethoxy)phenyl)-4-methyl-6-(6-methyl-5-oxo-6,7-dihydro-5H-pyrrolo[3,4-b]pyridin-3-yl)-3,4-dihydro-2H-benzo[4,5]imidazo[2,1-b][1,3]thiazine-8-carboxamide] | ≤ 5 | ≤ 5 | 5 to 50 | > 1000 | 5 to 50 | 50 to 1000 | 50 to 1000 | 50 to 1000 | 50 to 1000 | 5 to 50 | > 1000 | 50 to 1000
C[C@@H]1COCc2nc3cc(C(=O)Nc4ccc(OC(F)(F)Cl)cc4)cc(-c4cnc5c(c4)C(=O)N(C)C5)c3n21 [T-21, (R)-N-(4-(chlorodifluoromethoxy)phenyl)-4-methyl-6-(6-methyl-5-oxo-6,7-dihydro-5H-pyrrolo[3,4-b]pyridin-3-yl)-3,4-dihydro-1H-benzo[4,5]imidazo[2,1-c][1,4]oxazine-8-carboxamide] | ≤ 5 | ≤ 5 | 5 to 50 | > 1000 | 5 to 50 | 50 to 1000 | 50 to 1000 | 50 to 1000 | 50 to 1000 | 5 to 50 | > 1000 | 5 to 50
C[C@@H]1COCc2nc3cc(C(=O)Nc4ccc(OC(F)(F)Cl)cc4)cc(-c4cnc5c(c4)-c4nn(-c6ncc(F)cn6)cc4C5)c3n21 [T-68, (R)-N-(4-(chlorodifluoromethoxy)phenyl)-6-(2-(5-fluoropyrimidin-2-yl)-2,4-dihydropyrazolo[3',4':3,4]cyclopenta[1,2-b]pyridin-7-yl)-4-methyl-3,4-dihydro-1H-benzo[4,5]imidazo[2,1-c][1,4]oxazine-8-carboxamide] | ≤ 5 | ≤ 5 | ≤ 5 | > 1000 | – | ≤ 5 | 5 to 50 | 5 to 50 | 5 to 50 | ≤ 5 | ≤ 5 | –
